Measurements reported in PubChem BioAssay (NCI).
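Interpolation was linear, between the two tested concentrations surrounding the appropriate level; five concentrations were tested over 48 hours in 96-well plates. GI50 marks 50% less growth. TGI: total growth inhibition.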

Tests used:
Assay in all cases: NCI-60 cell line screen, 48 h
OVCAR-3 ovarian = system: OVCAR-3 ovarian
SN12C renal = system: SN12C renal
OVCAR-4 ovarian = system: OVCAR-4 ovarian
T-47D breast = system: T-47D breast
SNB-19 CNS = system: SNB-19 CNS
MDA-N = system: MDA-N
U251 CNS = system: U251 CNS
LOX IMVI melanoma = system: LOX IMVI melanoma
A549 NSCLC = system: A549 NSCLC
SK-OV-3 ovarian = system: SK-OV-3 ovarian

SMILES | TGI (OVCAR-3 ovarian) [µM] | TGI (SN12C renal) [µM] | TGI (OVCAR-4 ovarian) [µM] | TGI (T-47D breast) [µM] | TGI (SNB-19 CNS) [µM] | TGI (MDA-N) [µM] | TGI (U251 CNS) [µM] | TGI (LOX IMVI melanoma) [µM] | TGI (A549 NSCLC) [µM] | TGI (SK-OV-3 ovarian) [µM] | GI50 (OVCAR-3 ovarian) [µM] | GI50 (SN12C renal) [µM] | GI50 (OVCAR-4 ovarian) [µM] | GI50 (T-47D breast) [µM] | GI50 (SNB-19 CNS) [µM] | GI50 (LOX IMVI melanoma) [µM] | GI50 (A549 NSCLC) [µM] | GI50 (SK-OV-3 ovarian) [µM] | GI50 (U251 CNS) [µM]
NC(=O)CS(=O)CC(N)C(=O)O (stereo unspecified) | > 100 | > 100 | > 100 | > 100 | > 100 | > 100 | > 100 | > 100 | > 100 |  |  |  |  |  |  |  |  |  | 
COc1cc(-c2nc3nc(N4CCN(C)CC4)ccc3[nH]2)c(OC)c2[nH]c(COC(C)=O)nc12 |  | 98.8 | > 100 | > 100 | > 100 | > 100 | 46.5 | 73.6 | > 100 | 82.1 |  |  |  |  |  |  |  |  | 
O=C(/C=C/c1ccccc1O)/C=C/c1ccccc1O | 1.26 | 3.65 | 7.7 |  | 4.86 | 3.93 | 2.89 |  | 6.38 | 4.34 |  |  |  |  |  |  |  |  | 
C/C=C\C(CC(=O)NCCC1CN(C(=O)c2ccccc2)c2ccccc21)CC(=O)OC (stereo unspecified) | > 100 |  | > 100 | > 100 | > 100 | > 100 | > 100 |  | > 100 | > 100 |  |  |  |  |  |  |  |  | 
COc1ccc2c(c1)-c1nn(CCN(C)C)c3ccc(C(=O)NCCCN(C)CCCNC(=O)c4ccc5c6c(nn5CCN(C)C)-c5cc(OC)ccc5Nc46)c(c13)N2 | 3.23 | 0.983 | 0.827 |  | 1.04 | 0.564 | 0.825 | 0.898 | 1.17 | 3.18 |  |  |  |  |  |  |  |  | 
CCOC(=O)[C@H]1Nc2ccc(Cl)cc2[C@H]2c3ccccc3O[C@H]21 | > 100 | > 100 | > 100 |  | > 100 |  | > 100 | > 100 | > 100 |  |  |  |  |  |  |  |  |  | 
OCCO[P+]1(OCCO)n2c3ccc2C(c2ccccc2)=C2C=CC(=N2)C(c2ccccc2)=c2ccc(n21)=C(c1ccccc1)C1=NC(=C3c2ccccc2)C=C1 | 1.34 | 0.125 | 2.17 | 2.09 | 1.96 | 0.092 | 1.25 |  | 1.93 | 0.569 |  |  |  |  |  |  |  |  | 
COC(=O)c1ccccc1CC(Cc1ccccc1)C(=O)OC (stereo unspecified) | > 100 | > 100 | > 100 |  | > 100 |  | > 100 | > 100 | > 100 | > 100 |  |  |  |  |  |  |  |  | 
C#CCOC(=O)C(N)CCCN=C(N)N (stereo unspecified) |  | > 100 | > 100 | > 100 | > 100 | > 100 | > 100 | > 100 | > 100 |  |  |  |  |  |  |  |  |  | 
CC(C)CCC[C@@H](C)[C@H]1CCC2C3=CCC4C(=O)C=CC(=O)C4C3CC[C@@]21C (stereo partly specified) |  | > 100 | 0.498 |  | > 100 |  |  | 1.17 |  |  | 0.348 | 0.256 | 0.159 | 0.174 | 0.543 | 0.227 | 0.0836 |  | 
O=C(NN1C(=O)C=CC1=O)c1ccccc1Nc1ccccc1C(=O)NN1C(=O)C=CC1=O | > 100 | > 100 | > 100 | > 100 | > 100 | > 100 | > 100 | > 100 |  |  |  |  |  |  |  |  |  |  | 
Clc1ncnc2c1ncn2CCCCCCCCCCCCn1cnc2c(Cl)ncnc21 | 23.3 | 37.5 | 23.3 |  | 27.8 |  | 23.7 | 7.19 | 26.4 | 33.3 |  |  |  |  |  |  |  |  | 
O=C(Nc1cccc(-n2ccc3c(NC(=O)c4ccccc4)nccc32)c1)c1cc(N2CCOCC2)cc(C(F)(F)F)c1 | 0.0605 | > 100 | > 100 | > 100 | > 100 |  | > 100 | > 100 |  | > 100 | 0.0259 | 0.467 | 0.175 | > 51.8 | 0.379 | 0.0912 | 0.142 | 0.142 | 0.118
COc1ccc(C(O)/C(=C/n2ccnc2)c2ccccc2)cc1OC (stereo unspecified) | > 100 | > 100 | > 100 |  | > 100 |  | > 100 | > 100 | > 100 | > 100 |  |  |  |  |  |  |  |  | 
CCOC(=O)C(C)c1nc2cc(N3CCN(C)CC3)c(F)cc2[nH]c1=O (stereo unspecified) | > 100 | > 100 | > 100 | > 100 | > 100 | > 100 | > 100 |  | > 100 | > 100 |  |  |  |  |  |  |  |  | 
CC[C@@H]1CC[C@@H]2[C@H](CC[C@]3(C)[C@@H](OS(=O)(=O)c4ccc(C)cc4)CC[C@@H]23)[C@H]1CO | > 100 | > 100 | > 100 | > 100 | > 100 | > 100 | > 100 | > 100 | > 100 |  |  |  |  |  |  |  |  |  | 
CCCCCCOc1ccc(NC2=C(Cl)C(=O)c3ncccc3C2=O)cc1 | 6.25 | 3.12 |  | 4.03 | 4.51 | 2.97 | 3.08 | 4.15 | 8.96 | > 10 |  |  |  |  |  |  |  |  | 
COC(=O)c1cccc(C(=O)OC)c1 |  | > 100 | > 100 |  | > 100 |  | > 100 | > 100 | > 100 | > 100 |  |  |  |  |  |  |  |  | 
O=C1/C(=C/c2ccco2)NC(=S)N1CN1CCOCC1 | > 100 | > 100 | > 100 |  | > 100 | > 100 | > 100 | > 100 | > 100 | > 100 |  |  |  |  |  |  |  |  | 
C=CCN(CC=C)CC(C(C)=O)C(c1ccccc1)c1c(O)c2ccccc2oc1=O (stereo unspecified) |  | > 100 | > 100 |  | > 100 |  | > 100 | > 100 | > 100 | > 100 |  |  |  |  |  |  |  |  | 
COc1nc2[nH]ccc2c(=O)n1C |  | > 100 | 41.5 |  | > 100 |  | > 100 | > 100 | > 100 |  |  |  |  |  |  |  |  |  | 
COc1ccccc1NC(=O)CC(=O)NNCC(=O)Nc1nnc(-c2ccccc2)o1 | > 100 | > 100 | > 100 |  | > 100 |  | > 100 | > 100 | > 100 | > 100 |  |  |  |  |  |  |  |  | 
